Measurements as given in ChEMBL document CHEMBL5034037, “Synthesis, Characterization, and Preclinical Evaluation of a Small-Molecule Prostate-Specific Membrane Antigen-Targeted Monomethyl Auristatin E Conjugate” (J Med Chem, 2021).
The source made the active and inactive calls. The calls are words filed in the database; no cut-off is given here. *1 amine or outer side, *2 acyl side, *3 side chain or, on linkers, in order; H or OH if unused. Where a SMILES comes first, the peptide text is derived from it. [ ]: non-standard residue; d: D form. The star is where a group is joined. GluureaLys(ε-3-ClBenzyl) = O=C(O)CC[C@H](NC(=O)N[C@@H](CCCCN(Cc1cccc(Cl)c1)*)C(=O)O)C(=O)O; Dolaproine = CO[C@@H]([C@@H]1CCCN1)[C@@H](C)C(=O)O; Dil = CC[C@H](C)[C@H](NC)[C@@H](CC(=O)O)OC; X1 = O=C(CCCc1cn(CCCN[*:1])nn1)[*:2]; PABC = O=C(OCc1ccc(N[*:1])cc1)[*:2]; X2 = C[C@@H](N*)[C@@H](O)c1ccccc1; Cit = NC(=O)NCCC[C@H](N)C(=O)O; Suc = O=C(CCC(=O)[*:2])[*:1]; NMeV = CN[C@H](C(=O)O)C(C)C; Ahx = NCCCCCC(=O)O

Experiments:
[1] = Toxicity in rabbit assessed as morphological changes in liver at 81 to 122 microg/kg, iv; format: tissue-based, Oryctolagus cuniculus; conditions: in vivo, dose 81-122 µg/kg
[2] = Toxicity in rabbit assessed as morphological changes in loops of colon at 81 to 122 microg/kg, iv; format: tissue-based, Oryctolagus cuniculus; conditions: in vivo, dose 81-122 µg/kg
[3] = Initial plasma concentration in rabbit plasma at 0.81 mg/kg, iv; format: ADME, organism-based, Oryctolagus cuniculus
PC-3 [4] = experiment: Induction morphological changes in human PC-3 cells assessed as decrease in cell membrane stiffness measured immediately after MMAE addition; format: functional, cell-based; conditions: time hrs <=1
[5] = Toxicity in rabbit assessed as morphological changes in bronchi at 81 to 122 microg/kg, iv; parameters: species or system Oryctolagus cuniculus; conditions: in vivo, dose 81-122 µg/kg
Salmonella typhimurium [6] = experiment: Mutagenecity in Salmonella typhimurium TA98 without metabolic activation system at 1000 ug/ml by Ames test; format: toxicity, organism-based; conditions: salmonella enterica subsp. enterica serovar typhimurium; dose 1000 µg/ml
[7] = Stability of the compound in human liver microsome assessed as half life; format: ADME; conditions: liver microsomes
[8] = Toxicity in rabbit assessed as change in body weight at 0.3 mg/kg, iv measured after 20 days; format: organism-based, Oryctolagus cuniculus; conditions: in vivo, 480 h, time 20 day
[9] = Toxicity in rabbit assessed as morphological changes in cerebrum at 81 to 122 microg/kg, iv; format: tissue-based, Oryctolagus cuniculus; conditions: in vivo, dose 81-122 µg/kg
Cytochrome P450 2C19 = Cytochrome P450 2C19 (Homo sapiens, UniProt P33261); experiment: Inhibition of CYP2C19 in human liver microsome using mephenytoin as substrate; format: ADME, microsomes
[10] = Toxicity in rabbit assessed as thrombosis at 81 to 122 microg/kg, iv; parameters: species or system Oryctolagus cuniculus; conditions: in vivo, dose 81-122 µg/kg
[11] = Mean residence time (0 to t) in Wistar rat at 1.5 mg/kg, iv; format: ADME, organism-based; conditions: in vivo
[12] = Toxicity in rabbit assessed as morphological changes in aortic intima at 81 to 122 microg/kg, iv; parameters: species or system Oryctolagus cuniculus; conditions: in vivo, dose 81-122 µg/kg
[13] = AUC (0 to t) in rabbit at 0.81 mg/kg, iv; format: ADME, organism-based, Oryctolagus cuniculus; parameters: dose 0.81 mg/kg; conditions: in vivo
[14] = Elimination rate constant in Wistar rat at 1.5 mg/kg, iv; format: ADME, organism-based; conditions: in vivo
[15] = Toxicity in rabbit assessed as morphological changes in urinary bladder at 81 to 122 microg/kg, iv; parameters: species or system Oryctolagus cuniculus; conditions: in vivo, dose 81-122 µg/kg
Salmonella typhimurium [16] = experiment: Mutagenecity in Salmonella typhimurium TA100 without metabolic activation system at 10 ug/ml by Ames test; format: toxicity, organism-based; conditions: salmonella enterica subsp. enterica serovar typhimurium; dose 10 µg/ml
[17] = Toxicity in rat assessed as morphological changes in cerebrum at 150 to 225 microg/kg, iv; format: tissue-based; conditions: in vivo, dose 150-225 µg/kg
[18] = Toxicity in rat assessed as morphological changes in mucosa of thyroid gland at 150 to 225 microg/kg, iv; format: tissue-based; conditions: in vivo, dose 150-225 µg/kg
[19] = Half life in rabbit at 0.81 mg/kg, iv; format: ADME, organism-based, Oryctolagus cuniculus; conditions: in vivo
PC-3 [20] = experiment: Cytotoxicity against human PC-3 cells not expressing PMSA measured using MTT assay; format: functional
PC-3 [21] = experiment: Induction of intracellular reactive oxygen species production in human PC-3 cells incubated for 1 hr measured at CC50 concentration by amperometric method; format: functional, cell-based
Oryctolagus cuniculus = species: Oryctolagus cuniculus; experiment: Induction of morphological change in heart of rabbit; format: organism-based; conditions: in vivo
[22] = Toxicity in rabbit assessed as morphological changes in adrenal gland at 81 to 122 microg/kg, iv; format: tissue-based, Oryctolagus cuniculus; conditions: in vivo, dose 81-122 µg/kg
[23] = Acute toxicity in iv dosed Wistar rat assessed as maximum tolerated dose; format: organism-based; conditions: in vivo, read-out: MNTD
[24] = Stability of the compound in mouse liver microsome assessed as half life; format: ADME; conditions: liver microsomes
CWR22R = experiment: Cytotoxicity against human 22Rv1 cells expressing PMSA measured using MTT assay; format: functional
Cytochrome P450 3A4 = Cytochrome P450 3A4 (Homo sapiens, UniProt P08684); experiment: Inhibition of CYP3A4 in human liver microsome using testosterone as substrate; format: ADME, microsomes
Cytochrome P450 2B6 = target: T1, Cytochrome P450 2B6 (Homo sapiens, UniProt P20813); experiment: Drug metabolism assessed as human liver microsome CYP2B6-mediatd metabolism; format: ADME; conditions: microsomes
T1 sequence (P20813 whole entry): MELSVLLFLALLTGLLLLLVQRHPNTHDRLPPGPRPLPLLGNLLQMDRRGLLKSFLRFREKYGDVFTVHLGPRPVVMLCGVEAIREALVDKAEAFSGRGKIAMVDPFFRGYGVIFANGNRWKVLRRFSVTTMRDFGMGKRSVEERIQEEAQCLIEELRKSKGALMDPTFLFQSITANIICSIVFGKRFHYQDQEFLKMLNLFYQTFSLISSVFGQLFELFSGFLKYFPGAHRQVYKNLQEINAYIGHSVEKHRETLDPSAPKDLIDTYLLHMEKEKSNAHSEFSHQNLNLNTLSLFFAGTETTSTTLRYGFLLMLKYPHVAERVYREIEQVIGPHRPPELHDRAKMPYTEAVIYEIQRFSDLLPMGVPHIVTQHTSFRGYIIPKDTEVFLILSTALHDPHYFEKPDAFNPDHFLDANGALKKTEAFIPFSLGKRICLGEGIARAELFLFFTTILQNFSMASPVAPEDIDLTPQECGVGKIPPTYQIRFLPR

[25] = Toxicity in rabbit assessed as morphological changes in mucosa of trachea at 81 to 122 microg/kg, iv; format: tissue-based, Oryctolagus cuniculus; conditions: in vivo, dose 81-122 µg/kg
[26] = Toxicity in rabbit assessed as morphological changes in thymus at 81 to 122 microg/kg, iv; format: tissue-based, Oryctolagus cuniculus; conditions: in vivo, dose 81-122 µg/kg
[27] = Toxicity in rat assessed as morphological changes in duodenum at 150 to 225 microg/kg, iv; format: tissue-based; conditions: in vivo, dose 150-225 µg/kg
Salmonella typhimurium [28] = experiment: Mutagenecity in Salmonella typhimurium TA100 in presence of metabolic activation system at 100 ug/ml by Ames test; format: toxicity, organism-based; conditions: salmonella enterica subsp. enterica serovar typhimurium; dose 100 µg/ml
Salmonella typhimurium [29] = experiment: Mutagenecity in Salmonella typhimurium TA98 in presence of metabolic activation system at 10000 ug/ml by Ames test; format: toxicity, organism-based; conditions: salmonella enterica subsp. enterica serovar typhimurium; dose 10000 µg/ml
Salmonella typhimurium [30] = experiment: Mutagenecity in Salmonella typhimurium TA98 in presence of metabolic activation system at 1000 ug/ml by Ames test; format: toxicity, organism-based; conditions: salmonella enterica subsp. enterica serovar typhimurium; dose 1000 µg/ml
[31] = Toxicity in rabbit assessed as morphological changes in cerebral membrane at 81 to 122 microg/kg, iv; parameters: species or system Oryctolagus cuniculus; conditions: in vivo, dose 81-122 µg/kg
[32] = Acute toxicity in iv dosed ICR mouse assessed as maximum tolerated dose; format: organism-based; conditions: in vivo, read-out: MNTD
[33] = Toxicity in rat assessed as morphological changes in brain ventricle at 150 to 225 microg/kg, iv; format: tissue-based; conditions: in vivo, dose 150-225 µg/kg
[34] = Chronic toxicity in rabbit assessed as increase in stomach weight at 5.4 microg/kg, iv; format: tissue-based, Oryctolagus cuniculus; conditions: in vivo, 0.0054 mg/kg, dose 5.4 µg/kg
[35] = Toxicity in rat assessed as morphological changes in heart valve at 150 to 225 microg/kg, iv; format: tissue-based; conditions: in vivo, dose 150-225 µg/kg
Salmonella typhimurium [36] = experiment: Mutagenecity in Salmonella typhimurium TA97 in presence of metabolic activation system at 100 ug/ml by Ames test; format: toxicity, organism-based; conditions: salmonella enterica subsp. enterica serovar typhimurium; dose 100 µg/ml
[37] = Mean residence time in rabbit at 0.81 mg/kg, iv; format: ADME, organism-based, Oryctolagus cuniculus; conditions: in vivo
[38] = Chronic toxicity in rabbit assessed as decrease in the blood lymphocyte count at […], iv administered once every 3 weeks for 3 months; format: organism-based, Oryctolagus cuniculus; conditions: in vivo, 504 h, dose lower 81 mg/kg

Chain of Cytochrome P450 3A4 (P08684 whole entry): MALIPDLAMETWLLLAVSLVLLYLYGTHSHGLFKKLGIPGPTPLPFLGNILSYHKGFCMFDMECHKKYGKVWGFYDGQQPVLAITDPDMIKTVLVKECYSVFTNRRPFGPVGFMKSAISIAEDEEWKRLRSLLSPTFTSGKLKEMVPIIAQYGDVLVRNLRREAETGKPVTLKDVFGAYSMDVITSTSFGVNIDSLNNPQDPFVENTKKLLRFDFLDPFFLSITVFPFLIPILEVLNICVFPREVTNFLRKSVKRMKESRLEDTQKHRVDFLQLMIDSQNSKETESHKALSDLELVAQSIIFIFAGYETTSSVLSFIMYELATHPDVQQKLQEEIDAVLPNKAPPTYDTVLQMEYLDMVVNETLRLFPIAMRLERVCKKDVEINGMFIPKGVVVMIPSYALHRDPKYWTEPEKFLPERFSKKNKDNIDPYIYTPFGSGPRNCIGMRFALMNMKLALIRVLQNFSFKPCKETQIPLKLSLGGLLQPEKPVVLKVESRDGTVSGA
Chain of Cytochrome P450 2C19 (P33261 whole entry): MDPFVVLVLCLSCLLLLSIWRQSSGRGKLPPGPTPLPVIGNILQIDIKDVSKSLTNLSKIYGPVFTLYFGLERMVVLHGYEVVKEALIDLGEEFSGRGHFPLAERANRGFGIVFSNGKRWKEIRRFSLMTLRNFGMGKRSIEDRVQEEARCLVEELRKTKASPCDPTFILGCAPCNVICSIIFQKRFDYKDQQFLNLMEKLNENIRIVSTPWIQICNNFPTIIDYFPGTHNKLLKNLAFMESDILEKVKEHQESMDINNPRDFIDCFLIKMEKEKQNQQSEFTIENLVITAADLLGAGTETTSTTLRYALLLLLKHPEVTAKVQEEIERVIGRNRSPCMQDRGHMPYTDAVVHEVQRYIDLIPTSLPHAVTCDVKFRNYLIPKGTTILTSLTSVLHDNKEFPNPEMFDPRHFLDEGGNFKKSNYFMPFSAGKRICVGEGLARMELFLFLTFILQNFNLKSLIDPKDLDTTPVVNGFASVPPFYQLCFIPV

CC[C@H](C)[C@@H]([C@@H](CC(=O)N1CCC[C@H]1[C@H](OC)[C@@H](C)C(=O)N[C@H](C)[C@@H](O)c1ccccc1)OC)N(C)C(=O)[C@@H](NC(=O)[C@H](C(C)C)N(C)C(=O)OCc1ccc(NC(=O)[C@H](CCCNC(N)=O)NC(=O)[C@@H](NC(=O)CCCc2cn(CCCNC(=O)[C@H](Cc3ccc(O)cc3)NC(=O)[C@H](Cc3ccccc3)NC(=O)CCC(=O)NCCCCCC(=O)N(CCCC[C@H](NC(=O)N[C@@H](CCC(=O)O)C(=O)O)C(=O)O)Cc3cccc(Cl)c3)nn2)C(C)C)cc1)C(C)C ({GluureaLys(ε-3-ClBenzyl)-Ahx-Suc}-FY[X1]V[Cit][PABC][NMeV]V[Dil][Dolaproine]-X2)
Activity [1]: Non-Toxic | Activity [2]: Non-Toxic | C0 [3]: 11000 ng/mL | Activity (PC-3 [4]): inactive | Activity [5]: Non-Toxic | Activity (Salmonella typhimurium [6]): Non-Toxic | half-life [7]: 0.572 h | Activity [8]: Non-Toxic | Activity [9]: Non-Toxic | IC50 (Cytochrome P450 2C19): > 25000 nM | Activity [10]: Toxic | MRT last [11]: 3.8 h | Activity [12]: Non-Toxic | AUC(0-t) [13]: 31000 ng·h/mL | k el [14]: 4.17e-05 s⁻¹ | Activity [15]: Non-Toxic | Activity (Salmonella typhimurium [16]): Non-Toxic | Activity [17]: Non-Toxic | Activity [18]: Non-Toxic | half-life [19]: 4.6 h | CC50 (PC-3 [20]): 27 nM | Activity (PC-3 [21]): Active | Activity (Oryctolagus cuniculus): Non-Toxic | Activity [22]: Non-Toxic | MTD [23]: 4 mg/kg | half-life [24]: 0.457 h | CC50 (CWR22R): 29 nM | IC50 (Cytochrome P450 3A4): 11200 nM | Drug metabolism (Cytochrome P450 2B6): Metabolite_Notdetected | Activity [25]: Non-Toxic | Activity [26]: Non-Toxic | Activity [27]: Non-Toxic | Activity (Salmonella typhimurium [28]): Non-Toxic | Activity (Salmonella typhimurium [29]): Non-Toxic | Activity (Salmonella typhimurium [30]): Non-Toxic | Activity [31]: Non-Toxic | MTD [32]: 3 mg/kg | Activity [33]: Non-Toxic | Activity [34]: Toxic | Activity [35]: Non-Toxic | Activity (Salmonella typhimurium [36]): Non-Toxic | MRT [37]: 3.4 h | Activity [38]: Toxic
